Where “and” joins values, the source holds several entries; their conditions need not be identical. Equal values may be shown once. Records with an inconclusive call do not appear.
System: BDF1 mice, s.c. Lewis lung carcinoma, T/C %
Experiment: NCI In Vivo Anticancer Drug Screen. Data for tumor model Lewis Lung Carcinoma (subcutaneous) in B6D2F1 (BDF1) mice
Method in brief: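 Tumor-bearing mice were treated with test compound, and either survival or tumor size was recorded. Values are the treated-group measurement divided by that of the vehicle-treated control group.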

[1] = endpoint: mean tumor weight, dose: 100.0 mg/kg/injection, schedule: Q01DX011 (ip), vehicle: carboxymethylcellulose (CMC), higher = larger tumour
[2] = endpoint: median survival time, dose: 0.25 mg/kg/injection, schedule: Q01DX009 (ip), vehicle: Klucel (hydroxypropylcellulose) (HPC), higher = longer survival
[3] = endpoint: median survival time, dose: 1.0 mg/kg/injection, schedule: Q01DX009 (ip), vehicle: Klucel (hydroxypropylcellulose) (HPC), higher = longer survival
[4] = endpoint: mean tumor weight, dose: 250.0 mg/kg/injection, schedule: Q01DX011 (ip), vehicle: other, higher = larger tumour

CC(C)=CCCC(C)CCO (stereo unspecified)
T/C [1]: 72 % of control

CC1=C2C(=C[C@@](C)(CO)[C@@H]2O)C(=O)[C@](C)(O)C12CC2
T/C (endpoint: mean tumor weight, dose: 0.05 mg/kg/injection, schedule: Q01DX011 (ip), vehicle: saline, higher = larger tumour): 113 % of control | T/C (endpoint: mean tumor weight, dose: 0.1 mg/kg/injection, schedule: Q01DX011 (ip), vehicle: saline, higher = larger tumour): 102 % of control | T/C (endpoint: mean tumor weight, dose: 0.2 mg/kg/injection, schedule: Q01DX011 (ip), vehicle: saline, higher = larger tumour): 92 % of control | T/C (endpoint: mean tumor weight, dose: 0.4 mg/kg/injection, schedule: Q01DX011 (ip), vehicle: saline, higher = larger tumour): 19 % of control and 41 % of control | T/C (endpoint: mean tumor weight, dose: 0.6 mg/kg/injection, schedule: Q01DX011 (ip), vehicle: saline, higher = larger tumour): 20 % of control

CCN(CC)CCNc1ccc([N+](=O)[O-])c2sc3ccccc3c(=O)c12
T/C (endpoint: mean tumor weight, dose: 12.5 mg/kg/injection, schedule: Q01DX011 (ip), vehicle: other, higher = larger tumour): 88 % of control | T/C (endpoint: mean tumor weight, dose: 25.0 mg/kg/injection, schedule: Q01DX011 (ip), vehicle: other, higher = larger tumour): 102 % of control | T/C (endpoint: mean tumor weight, dose: 50.0 mg/kg/injection, schedule: Q01DX011 (ip), vehicle: other, higher = larger tumour): 84 % of control

O=C1C=CC(=Nc2ccc(O)c3ncccc23)c2cccnc21
T/C (endpoint: mean tumor weight, dose: 12.5 mg/kg/injection, schedule: Q01DX011 (ip), vehicle: saline, higher = larger tumour): 94 % of control | T/C (endpoint: mean tumor weight, dose: 25.0 mg/kg/injection, schedule: Q01DX011 (ip), vehicle: saline, higher = larger tumour): 49 % of control | T/C (endpoint: mean tumor weight, dose: 50.0 mg/kg/injection, schedule: Q01DX011 (ip), vehicle: saline, higher = larger tumour): 26 % of control

CC[C@@]1(O)C(=O)OCc2c1cc1n(c2=O)Cc2cc3c(OC)cccc3nc2-1
T/C (endpoint: median survival time, dose: 0.12 mg/kg/injection, schedule: Q01DX009 (ip), vehicle: Klucel (hydroxypropylcellulose) (HPC), higher = longer survival): 119 % of control | T/C [2]: 197 % of control | T/C (endpoint: median survival time, dose: 0.51 mg/kg/injection, schedule: Q01DX009 (ip), vehicle: Klucel (hydroxypropylcellulose) (HPC), higher = longer survival): 198 % of control | T/C [3]: 198 % of control

O=C(O)CSC1(SCC(=O)O)CCCCC1
T/C (endpoint: mean tumor weight, dose: 133.0 mg/kg/injection, schedule: Q01DX011 (ip), vehicle: other, higher = larger tumour): 75 % of control | T/C (endpoint: mean tumor weight, dose: 200.0 mg/kg/injection, schedule: Q01DX011 (ip), vehicle: other, higher = larger tumour): 77 % of control | T/C (endpoint: mean tumor weight, dose: 300.0 mg/kg/injection, schedule: Q01DX011 (ip), vehicle: other, higher = larger tumour): 104 % of control | T/C (endpoint: mean tumor weight, dose: 450.0 mg/kg/injection, schedule: Q01DX011 (ip), vehicle: other, higher = larger tumour): 86 % of control

COc1ccc(CN(CCOC(=O)c2ccc(OC)cc2)CCN(CCOC(=O)c2ccc(OC)cc2)Cc2ccc(OC)cc2)cc1
T/C (endpoint: median survival time, dose: 25.0 mg/kg/injection, schedule: Q01DX009 (ip), vehicle: other, higher = longer survival): 100 % of control | T/C (endpoint: median survival time, dose: 50.0 mg/kg/injection, schedule: Q01DX009 (ip), vehicle: other, higher = longer survival): 98 % of control | T/C (endpoint: median survival time, dose: 100.0 mg/kg/injection, schedule: Q01DX009 (ip), vehicle: other, higher = longer survival): 93 % of control | T/C (endpoint: median survival time, dose: 200.0 mg/kg/injection, schedule: Q01DX009 (ip), vehicle: other, higher = longer survival): 100 % of control

O=NN(CCCl)C(=O)NC1CCCC1
T/C (endpoint: median tumor weight (est.), dose: 33.0 mg/kg/injection, schedule: Q01DX001 (ip), vehicle: saline, higher = larger tumour): 62 % of control | T/C (endpoint: median tumor weight (est.), dose: 67.0 mg/kg/injection, schedule: Q01DX001 (ip), vehicle: saline, higher = larger tumour): 76 % of control | T/C (endpoint: median tumor weight (est.), dose: 100.0 mg/kg/injection, schedule: Q01DX001 (ip), vehicle: saline, higher = larger tumour): 56 % of control

CC(=O)OCC1CCC(NC(=O)N(CCCl)N=O)CC1 (stereo unspecified)
T/C (endpoint: median survival time, dose: 8.0 mg/kg/injection, schedule: Q01DX001 (ip), vehicle: Klucel (hydroxypropylcellulose) (HPC), higher = longer survival): 112 % of control | T/C (endpoint: median survival time, dose: 12.0 mg/kg/injection, schedule: Q01DX001 (ip), vehicle: Klucel (hydroxypropylcellulose) (HPC), higher = longer survival): 124 % of control | T/C (endpoint: median survival time, dose: 18.0 mg/kg/injection, schedule: Q01DX001 (ip), vehicle: Klucel (hydroxypropylcellulose) (HPC), higher = longer survival): 163 % of control | T/C (endpoint: median survival time, dose: 26.0 mg/kg/injection, schedule: Q01DX001 (ip), vehicle: Klucel (hydroxypropylcellulose) (HPC), higher = longer survival): 160 % of control | T/C (endpoint: median survival time, dose: 40.0 mg/kg/injection, schedule: Q01DX001 (ip), vehicle: Klucel (hydroxypropylcellulose) (HPC), higher = longer survival): 104 % of control

CCn1cnc2c(SC)nc(N)nc21
T/C (endpoint: mean tumor weight, dose: 100.0 mg/kg/injection, schedule: Q01DX011 (ip), vehicle: other, higher = larger tumour): 50 % of control | T/C [4]: 60 % of control | T/C (endpoint: mean tumor weight, dose: 500.0 mg/kg/injection, schedule: Q01DX011 (ip), vehicle: other, higher = larger tumour): 67 % of control | T/C (endpoint: mean tumor weight, dose: 1000.0 mg/kg/injection, schedule: Q01DX011 (ip), vehicle: other, higher = larger tumour): 42 % of control

O=C1C=CC2(CCC23C=CC(=O)O3)O1 (stereo unspecified)
T/C (endpoint: mean tumor weight, dose: 13.0 mg/kg/injection, schedule: Q01DX011 (ip), vehicle: saline, higher = larger tumour): 102 % of control | T/C (endpoint: mean tumor weight, dose: 30.0 mg/kg/injection, schedule: Q01DX011 (ip), vehicle: saline, higher = larger tumour): 85 % of control | T/C (endpoint: mean tumor weight, dose: 45.0 mg/kg/injection, schedule: Q01DX011 (ip), vehicle: saline, higher = larger tumour): 80 % of control and 83 % of control | T/C (endpoint: mean tumor weight, dose: 65.0 mg/kg/injection, schedule: Q01DX011 (ip), vehicle: saline, higher = larger tumour): 66 % of control

Nc1ncnc2c1ncn2C1OC(CO)CC1O (stereo unspecified)
T/C (endpoint: mean tumor weight, dose: 37.0 mg/kg/injection, schedule: Q01DX011 (ip), vehicle: saline, higher = larger tumour): 101 % of control | T/C (endpoint: mean tumor weight, dose: 75.0 mg/kg/injection, schedule: Q01DX011 (ip), vehicle: saline, higher = larger tumour): 86 % of control

COc1ccc(CN2CCCN(Cc3ccc(OC)cc3)C2c2ccccc2)cc1
T/C (endpoint: mean tumor weight, dose: 111.0 mg/kg/injection, schedule: Q01DX011 (ip), vehicle: other, higher = larger tumour): 120 % of control | T/C [4]: 83 % of control

Fc1ccc(NC(=S)Nc2cc(Cl)cc(Cl)c2)cc1
T/C (endpoint: mean tumor weight, dose: 7.5 mg/kg/injection, schedule: Q01DX011 (ip), vehicle: carboxymethylcellulose (CMC), higher = larger tumour): 60 % of control

C=C(C)[C@@H]1CC[C@]2(CO)CC[C@]3(C)[C@H](CC[C@@H]4[C@@]5(C)CC[C@H](O)C(C)(C)[C@@H]5CC[C@]43C)[C@@H]12
T/C [1]: 101 % of control | T/C (endpoint: mean tumor weight, dose: 200.0 mg/kg/injection, schedule: Q01DX011 (ip), vehicle: carboxymethylcellulose (CMC), higher = larger tumour): 68 % of control

O=C(CCCN1CCC(O)(c2cccc(C(F)(F)F)c2)CC1)c1ccc(F)cc1
T/C (endpoint: median survival time, dose: 25.0 mg/kg/injection, schedule: Q04DX003 (ip), vehicle: saline with Tween-80, higher = longer survival): 92 % of control | T/C (endpoint: median survival time, dose: 50.0 mg/kg/injection, schedule: Q04DX003 (ip), vehicle: saline with Tween-80, higher = longer survival): 121 % of control

C[C@@H]1CC[C@@]2(NC1)O[C@H]1C[C@H]3[C@@H]4CC=C5C[C@@H](O)CC[C@]5(C)[C@H]4CC[C@]3(C)[C@H]1[C@@H]2C
T/C (endpoint: mean tumor weight, dose: 12.0 mg/kg/injection, schedule: Q01DX011 (sc), vehicle: steriod suspending solution, higher = larger tumour): 73 % of control | T/C (endpoint: mean tumor weight, dose: 16.6 mg/kg/injection, schedule: Q01DX011 (ip), vehicle: carboxymethylcellulose (CMC), higher = larger tumour): 56 % of control and 59 % of control and 70 % of control | T/C (endpoint: mean tumor weight, dose: 18.0 mg/kg/injection, schedule: Q01DX011 (sc), vehicle: steriod suspending solution, higher = larger tumour): 75 % of control | T/C (endpoint: mean tumor weight, dose: 40.0 mg/kg/injection, schedule: Q01DX011 (sc), vehicle: steriod suspending solution, higher = larger tumour): 94 % of control | T/C (endpoint: mean tumor weight, dose: 50.0 mg/kg/injection, schedule: Q01DX011 (ip), vehicle: carboxymethylcellulose (CMC), higher = larger tumour): 97 % of control | T/C (endpoint: mean tumor weight, dose: 54.0 mg/kg/injection, schedule: Q01DX011 (sc), vehicle: steriod suspending solution, higher = larger tumour): 92 % of control | T/C (endpoint: mean tumor weight, dose: 80.0 mg/kg/injection, schedule: Q01DX011 (sc), vehicle: steriod suspending solution, higher = larger tumour): 119 % of control | T/C (endpoint: mean tumor weight, dose: 100.0 mg/kg/injection, schedule: Q01DX011 (sc), vehicle: steriod suspending solution, higher = larger tumour): 83 % of control | T/C (endpoint: mean tumor weight, dose: 200.0 mg/kg/injection, schedule: Q01DX011 (sc), vehicle: steriod suspending solution, higher = larger tumour): 58 % of control | T/C (endpoint: mean tumor weight, dose: 400.0 mg/kg/injection, schedule: Q01DX011 (sc), vehicle: steriod suspending solution, higher = larger tumour): 104 % of control

CC[C@]1(O)C[C@H](OC2CC(N(C)C)C(OC3CC(O)C(O)C(C)O3)C(C)O2)c2c(cc3c(c2O)C(=O)c2c(O)ccc(O)c2C3=O)[C@H]1C(=O)OC (stereo partly specified)
T/C (endpoint: median survival time, dose: 0.25 mg/kg/injection, schedule: Q01DX009 (ip), vehicle: saline with Tween-80, higher = longer survival): 118 % of control | T/C (endpoint: median survival time, dose: 0.5 mg/kg/injection, schedule: Q01DX009 (ip), vehicle: saline with Tween-80, higher = longer survival): 110 % of control | T/C (endpoint: median survival time, dose: 1.0 mg/kg/injection, schedule: Q01DX009 (ip), vehicle: saline with Tween-80, higher = longer survival): 123 % of control | T/C (endpoint: median survival time, dose: 2.0 mg/kg/injection, schedule: Q01DX009 (ip), vehicle: saline with Tween-80, higher = longer survival): 110 % of control

CC(C)n1c2c([n+](C)c1/C=C/c1ccccc1)C(=O)c1ccccc1C2=O
T/C (endpoint: median survival time, dose: 0.5 mg/kg/injection, schedule: Q01DX009 (ip), vehicle: saline, higher = longer survival): 96 % of control | T/C (endpoint: median survival time, dose: 1.0 mg/kg/injection, schedule: Q01DX009 (ip), vehicle: saline, higher = longer survival): 110 % of control

N#Cc1ncc(C(Cl)Cl)nc1Cl
T/C (endpoint: median survival time, dose: 25.0 mg/kg/injection, schedule: Q01DX009 (ip), vehicle: saline with Tween-80, higher = longer survival): 113 % of control | T/C (endpoint: median survival time, dose: 50.0 mg/kg/injection, schedule: Q01DX009 (ip), vehicle: saline with Tween-80, higher = longer survival): 98 % of control

Cc1c2cc3c(c1O)C(=O)CC(O3)c1ccc(O)c(c1)-c1ccc(O)c(c1)C(=O)OCC1OC(O2)C(O)C(O)C1O (stereo unspecified)
T/C (endpoint: median survival time, dose: 0.13 mg/kg/injection, schedule: Q01DX009 (ip), vehicle: Klucel (hydroxypropylcellulose) (HPC), higher = longer survival): 112 % of control | T/C [2]: 102 % of control | T/C (endpoint: median survival time, dose: 0.5 mg/kg/injection, schedule: Q01DX009 (ip), vehicle: Klucel (hydroxypropylcellulose) (HPC), higher = longer survival): 100 % of control | T/C [3]: 101 % of control
